A short description of this assay: CaCO3 scale inhibition at pH 9 and 300X calcite saturation (% inhibition by calcium titration, Schwarzenbach method).

Description: PROCEDURE: Scaling water containing 250 mg/L of CO (-2)/(3) [formula] and 600 mg/L of alkalinity at a pH of 9.0 and 55°C was used to evaluate scale inhibition performance of test solutions over a 24 hr period. Test solutions were analyzed by withdrawing 10 g of test solution and adding it to the appropriate container through a 0.2 µ filter, titrating for calcium, and calculating % inhibition by the Schwarzenbach method.

Turning to `O=P(O)(O)CN(CCO)CP(=O)(O)O` [Sample No. 1, N-(2-hydroxyethyl)-N-bis(methylenephosphonic acid)], the scale inhibition is given as 67.8% (10% Excess Ca/Alk, 25ppm); 85.6% (10% Excess Ca/Alk, 50ppm); 82.6% (60°C, 50ppm); 90.8% (pH 9, 300X CaCO₃, 50ppm, 24hrs); 87.5% (pH 9, 300X CaCO₃, 50ppm, 4 days).

These data come from patent EP0564248A1, “N-(2-hydroxyethyl)-N-bis(methylenephosphonic acid) and corresponding N-oxide thereof for high pH scale control” (Calgon Corporation, priority 1992, dated 1993).
